Results from patent publication US9512116B2, “Compounds that modulate intracellular calcium” (CALCIMEDICA, INC., priority 2012, dated 2016).
Where two headings read alike, the source gives them in different places.

How the values were obtained:
Orai1/STIM1 = target: T1, Orai1/STIM1 (Homo sapiens, UniProt Q96D31); test: Fluorescence-based assay of store-operated calcium entry in Orai1/STIM1 stable cells; type: cell-based; settings: HEK-293 cells stably expressing human STIM1 and Orai1, Peak-Basal signal, read-out: Orail/STIM1 (IC50, μmol)
T1 construct: expressed in transfected cells; host or cells: HEK-293
T1 sequence (Q96D31 whole entry): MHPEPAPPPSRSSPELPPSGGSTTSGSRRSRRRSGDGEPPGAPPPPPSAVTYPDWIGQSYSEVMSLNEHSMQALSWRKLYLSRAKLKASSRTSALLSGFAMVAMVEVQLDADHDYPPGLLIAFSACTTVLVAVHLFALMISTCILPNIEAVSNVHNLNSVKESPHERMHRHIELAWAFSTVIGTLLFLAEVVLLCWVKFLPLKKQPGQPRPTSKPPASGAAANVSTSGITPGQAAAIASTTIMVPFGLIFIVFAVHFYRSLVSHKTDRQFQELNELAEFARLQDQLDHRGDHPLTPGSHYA
Source text: Fluorescence-based assays are used for screening the compounds described herein, such as compounds of Formulas (I), (II), (III), (IV) or (V) which modulate intracellular calcium.
A. Fluorescence-Based Assay of Store-Operated Calcium Entry in Orai1/STIM1 Stable Cells.
Cells stably expressing recombinant human STIM1 and Orai1 are generated by transfecting a human Orai1 expression plasmid (pcDNA3.1-Orai1-cmyc) into HEK-293 cells stably overexpressing human STIM1 (Roos et al. 2005 JCB 169(3): 435-445). Colonies of cells stably expressing both STIM1 and Orai1 proteins are selected and then subcloned by limiting dilution. Cells were cultured at 37° C./6% CO2 in complete medium with 10% FBS and appropriate selection markers.
The day prior to performing the assay Orai1/STIM1 stable cells are plated in 50 μL of complete medium at 90-95% confluence in a 384 well plate. Cells are grown at 37° C./6% CO2 overnight. On the day of the assay, 1.5 μM fluo-4-AM (Invitrogen) in complete medium is added to the cells, which are then incubated for 1 hour at RT. Cells are washed once in Ca^2+-free HBSS (Hank's buffered saline solution) and 35 μl of Ca^2+-free HBSS is added to each well. Test compounds are added to wells in a 10 μL Ca^2+-free HBSS solution, prepared at 4.5× the desired final concentration, and incubated for 30 minutes at RT. The initial baseline fluorescence signal is then measured with a FLIPR^384 (Molecular Devices) plate reader. Calcium entry is initiated by adding 5 μl of 10×CaCl2 (10 mM) in HBSS, and changes in cellular fluorescence are measured with the FLIPR^384 plate reader. In each well, the magnitude of the fluorescence signal as a result of calcium entry into the cell is determined by calculating the difference between the peak fluorescence signal measured after calcium addition and the initial baseline fluorescence signal (designated Peak-Basal). IC50 values are typically calculated as the concentration that inhibited 50% of the Peak-Basal signal.

RBL-2H3 cells = test: Fluorescence-based assay of store-operated calcium entry in RBL-2H3 cells; type: cell-based; settings: Rattus norvegicus, thapsigargin, Upslope, read-out: RBL-2H3 (IC50, μmol)
Protocol: B. Fluorescence-Based Assay of Store-Operated Calcium Entry in RBL-2H3 Cells.
RBL-2H3 cells are obtained from ATCC and maintained in complete medium with 10% FBS at 37° C./6% CO2.
The day prior to performing the assay, RBL-2H3 cells are plated in 50 μl of complete medium in a 384 well plate. Cells are grown at 37° C./6% CO2 overnight and grow to 50-60% confluence by the next day. On the assay day, 1.5 μM Fluo-4-AM dye (Invitrogen) in complete medium is added and incubated for 1 hour at RT. Cells are washed twice in Ca^2+-free HBSS buffer and 35 μL Ca^2+-free HBSS buffer is added to each well. 10 μL of a test compound prepared in a Ca^2+-free HBSS solution at 4.5× of the desired concentration is added to a well and incubated for 5 minutes at RT. 10 μL of thapsigargin prepared in a Ca^2+-free HBSS solution at 5.5× of the desired concentration (5.5 uM) is added to each well and incubated for an additional 25 minutes. The initial baseline fluorescence signal is measured with a FLIPR^384 (Molecular Devices) plate reader. 5 μL of 12× calcium in HBSS (12 mM) is added and changes in cellular fluorescence are measured with the FLIPR^384 plate reader. In each well, the change in the fluorescent signal as a function of time due to calcium entry into the cell is determined by calculating the difference between the fluorescent signal measured 7 seconds after calcium addition and the initial baseline fluorescence signal at time zero (t=0). This parameter is designated Upslope. The IC50 value is calculated as the concentration at which 50% of the Upslope is inhibited.

SMILES	IC50 (Orai1/STIM1; Table IV) [nM]	IC50 (Orai1/STIM1; Table III) [nM]	further results
Cn1nc(-c2ccccn2)cc1-c1ccc(NC(=O)c2c(F)cc(F)cc2F)s1 [Compound 27, 2,4,6-trifluoro-N-(5-(1-methyl-3-(pyridin-2-yl)-1H-pyrazol-5-yl)thiophen-2-yl)benzamide]	600 to 1200		
CCc1oc(C(F)(F)F)nc1-c1ccc(NC(=O)c2c(F)cccc2F)nc1 [Compound 25, N-(5-(5-ethyl-2-(trifluoromethyl)oxazol-4-yl)pyridin-2-yl)-2,6-difluorobenzamide]		< 600	
Cc1oc(C(F)(F)F)nc1-c1ccc(NC(=O)c2cccc(F)c2C)nc1 [Compound 19, 3-fluoro-2-methyl-N-(5-(5-methyl-2-(trifluoromethyl)oxazol-4-yl)pyridin-2-yl)benzamide]		< 600	
Cn1nc(-c2ccccn2)cc1-c1ccc(NC(=O)c2c(F)cccc2F)s1 [Compound 28, 2,6-difluoro-N-(5-(1-methyl-3-(pyridin-2-yl)-1H-pyrazol-5-yl)thiophen-2-yl)benzamide]	< 600		
Cc1oc(C(F)(F)F)nc1-c1ccc(NC(=O)c2ccccc2F)nc1 [Compound 16]		< 600	
CCn1nc(-c2nccs2)cc1-c1ccc(NC(=O)c2c(F)cc(F)cc2F)s1 [Compound 16]	600 to 1200		
Cn1nc(-c2nccs2)cc1-c1ccc(NC(=O)c2c(F)cccc2F)s1 [Compound 6, (2,6-difluorophenyl)-N-[5-[1-methyl-3-(1,3-thiazol-2-yl)pyrazol-5-yl](2-thienyl)]carboxamide]	< 600		
Cc1cccc(F)c1C(=O)Nc1ccc(-c2nc(C(F)(F)F)oc2C)cn1 [Compound 21]		< 600	IC50 (RBL-2H3 cells; Table III): < 600 nM
Cn1nc(-c2ccccc2F)cc1-c1ccc(NC(=O)c2c(F)ccc(F)c2F)s1 [Compound 21]	600 to 1200		IC50 (RBL-2H3 cells; Table IV): 600 to 1200 nM
Cc1oc(C(F)(F)F)nc1-c1ccc(NC(=O)c2c(F)cncc2F)nc1 [Compound 17, 3,5-difluoro-N-(5-(5-methyl-2-(trifluoromethyl)oxazol-4-yl)pyridin-2-yl)isonicotinamide]		< 600	
Cn1nc(-c2nccs2)cc1-c1ccc(NC(=O)c2c(F)cc(F)cc2F)s1 [Compound 10, (2,4,6-trifluorophenyl)-N-[5-[1-methyl-3-(1,3-thiazol-2-yl)pyrazol-5-yl](2-thienyl)]carboxamide]	< 600		
Cn1nc(-c2ccccc2F)cc1-c1ccc(NC(=O)c2c(F)cccc2F)s1 [Compound 22]	< 600		IC50 (RBL-2H3 cells; Table IV): < 600 nM
Cc1oc(C(F)(F)F)nc1-c1ccc(NC(=O)c2c(F)cccc2F)nc1 [Compound 14, 2,6-difluoro-N-(5-(5-methyl-2-(trifluoromethyl)oxazol-4-yl)pyridin-2-yl)benzamide]		< 600	
Cn1nc(-c2nccs2)cc1-c1ccc(NC(=O)c2ccc(F)cc2F)s1 [Compound 7, (2,4-difluorophenyl)-N-[5-[1-methyl-3-(1,3-thiazol-2-yl)pyrazol-5-yl](2-thienyl)]carboxamide]	< 600		
CCc1oc(C(F)(F)F)nc1-c1ccc(NC(=O)c2ccccc2F)nc1 [Compound 24, N-(5-(5-ethyl-2-(trifluoromethyl)oxazol-4-yl)pyridin-2-yl)-2-fluorobenzamide]		< 600	
CCn1nc(-c2nccs2)cc1-c1ccc(NC(=O)c2c(F)cccc2F)s1 [Compound 15]	600 to 1200		
Cc1ccccc1C(=O)Nc1ccc(-c2nc(C(F)(F)F)oc2C)cn1 [Compound 15]		< 600	
Cn1nc(-c2ccccc2F)cc1-c1ccc(NC(=O)c2c(F)cc(F)cc2F)s1 [Compound 20]	< 600		IC50 (RBL-2H3 cells; Table IV): < 600 nM
